# In patent US7192734B2, “Method of testing for the presence of microorganisms in a gaseous environment comprising hydrogen peroxide” (Millipore Corporation, priority 2002, dated 2007):
# What was measured:
# [1] = system: Miccrococus luteus ATCC9342; assay: Tolerance in drastic conditions: 100 and 300 ppm hydrogen peroxide, 1% and 5% pyruvate in TSA (Example 5, part 3, Table I); assay type: cell-based, Miccrococcus luteus; conditions: hydrogen peroxide 300 ppm; pyruvate 5%
# Description: The conditions of Example 3 were reproduced using high concentrations of pyruvate (≧1%), in the presence or absence of hydrogen peroxide in the gaseous environment.
# 3/ Tolerance of Miccrococcus luteus in drastic conditions, when hydrogen peroxide is raised up to 300 ppm in the gaseous environment and the concentration of pyruvate is up to 5% by weight of agar growth medium.
# Miccrococcus luteus growth has been monitored using respectively 100 ppm and 300 ppm of hydrogen peroxide, whereas the concentration of pyruvate by weight of TSA agar growth medium was 1% and 5%.
# microorganisms [2] = assay: Level of recovery of microorganisms on TSA medium with 1% sodium pyruvate, after impact of air comprising hydrogen peroxide vapour (Examples 3 and 4); assay type: cell-based; conditions: 1 m^3 air, 8 ppm hydrogen peroxide vapour; TSA + 1% by weight sodium pyruvate
# Procedure: Example 1 was reproduced but with the use of 1 m^3 of air comprising 8 ppm (instead of 0.3 ppm) of hydrogen peroxide vapour (instead of sprayed hydrogen peroxide which was impacted, firstly, on a TSA growth medium, then, secondly, on the TSA medium to which 1% by weight of sodium pyruvate was added.
# The results obtained are shown in FIG. 2, in which the x-axis represents the nature of the microorganisms and the y-axis represents the level of recovery.
# Example 3 was reproduced by sampling 1 m^3 of air comprising 8 ppm of hydrogen peroxide which were impacted, firstly, on the same TSA growth medium to which 1% by weight of sodium pyruvate was added, not sterilized by the action of gamma radiation. Then, secondly, the same test was repeated but, this time, on the same growth medium sterilized by the action of gamma radiation.
# The results obtained are shown in FIG. 3, in which the x-axis represents the nature of the microorganisms and the y-axis represents the level of recovery.
# microorganisms [3] = conditions: 1 m^3 air comprising 0.3 ppm sprayed hydrogen peroxide; TSA growth medium
# Procedure: The surface of the growth medium was spread with an aqueous suspension comprising a predetermined number of microorganisms.
# The TSA growth media were next placed in a temperature-controlled incubator to enable the growth of the colonies of microorganisms.
Compound,growth of Miccrococcus luteus [1],formation and counting of colonies of microorganisms (microorganisms [2]),effect on formation of colonies of microorganisms (microorganisms [3])
CC(=O)C(=O)[O-].[Na+] [sodium pyruvate],enable growth of Miccrococcus luteus,permits the formation and counting of colonies of microorganisms,–
OO [hydrogen peroxide],–,–,inhibiting of the formation of the colonies of microorganisms
